According to US9101638B2, “Boronic acid derivatives and therapeutic uses thereof” (Rempex Pharmaceuticals, Inc., priority 2013, dated 2015):

Columns and labels:
ec308 (SHV-5) [1] = assay: Potentiation of aztreonam, strain ec308; format: cell-based; details: minimum BLI concentration inhibiting growth with 4 μg/mL aztreonam
PAM1032/KPC-2 = assay: Biapenem potentiation in PAM1032/KPC-2 (MexAB-OprM overexpressed); format: cell-based, Pseudomonas aeruginosa; details: BLI potency to decrease biapenem MIC 64-fold, 32 to 0.5 μg/ml; efflux proficient strain
Description: (§1) Efflux of BLIs from Pseudomonas aeruginosa by the MexAB-OprM efflux pump was also evaluated. […] Due to expression of KPC-2 both strains became resistant to biapenem. […] Potency of BLIs to potentiate biapenem in these strains was determined. […] The ratio of MPC64 values for each BLI in PAM1032/KPC-2 (efflux proficient) and PAM1154/KPC-2 (efflux deficient) was determined to generate the Efflux Index (EI).

ECL1002 = assay: Potentiation of aztreonam, strain ECL1002; format: cell-based; details: minimum BLI concentration inhibiting growth with 4 μg/mL aztreonam
KP1004 (K-2) = assay: Potentiation of aztreonam, strain KP1004; format: cell-based; details: minimum BLI concentration inhibiting growth with 4 μg/mL aztreonam
P99 = P99 (Enterobacter cloacae, UniProt P05364); assay: Inhibition of nitrocefin cleavage by purified P99; format: biochemical; details: nitrocefin reporter substrate, purified enzyme; read-out: Ki (P99, NCF)
Description: (§2) Purified enzymes were mixed with various concentrations of inhibitors in reaction buffer and incubated for 10 min at room temperature. Nitrocefin was added and substrate cleavage profiles were recorded at 490 nm every 10 sec for 10 min.

PAM1154/KPC-2 = assay: Biapenem potentiation in PAM1154/KPC-2 (MexAB-OprM lacking); format: cell-based, Pseudomonas aeruginosa
Description: as §1

KP1005 (CTX-M-14) = assay: Potentiation of aztreonam, strain KP1005; format: cell-based
EC1010 (CMY-6) [2] = format: cell-based
KP1009 (CTX-M-15) [3] = assay: Potentiation of aztreonam, strain KP1009; format: cell-based
CTX-M-14 = CTX-M-14 (Escherichia coli, UniProt Q9L5C7); assay: Inhibition of nitrocefin cleavage by purified CTX-M-14; format: biochemical; details: nitrocefin reporter substrate, purified enzyme; read-out: Ki (CTX-M-14, NCF)
Summary of the method: (§3)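 10 min RT preincubation, enzyme with inhibitor series in reaction buffer. Substrate nitrocefin; kinetic read 490 nm, 10 sec intervals, 10 min total.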

SHV-12 = SHV-12 (Klebsiella pneumoniae, UniProt P0AD64, E235K/G234S/L31Q); assay: Inhibition of nitrocefin cleavage by purified SHV-12; format: biochemical; details: nitrocefin reporter substrate, purified enzyme; read-out: Ki (SHV-12, NCF)
Summary of the method: as §3

ec302 (TEM-10) [4] = assay: Potentiation of aztreonam, strain ec302; format: cell-based
CMY-2 = CMY-2 (Klebsiella pneumoniae, UniProt Q48434); assay: Inhibition of nitrocefin cleavage by purified CMY-2; format: biochemical; details: nitrocefin reporter substrate, purified enzyme; read-out: Ki (CMY-2, NCF)
Description: as §2

EC1010 (CMY-6) [5] = assay: Potentiation of aztreonam, strain EC1010; format: cell-based
ec302 (TEM-10) [6] = assay: Potentiation of tigemonam, strain ec302; format: cell-based
KP1009 (CTX-M-15) [7] = assay: Potentiation of tigemonam, strain KP1009; details: minimum BLI concentration inhibiting growth with 4 μg/mL tigemonam
OXA-48 = OXA-48 (Klebsiella pneumoniae, UniProt Q6XEC0); assay: Inhibition of nitrocefin cleavage by purified OXA-48; format: biochemical; details: nitrocefin reporter substrate, purified enzyme; read-out: Ki (OXA-48, NCF)
Description: as §2

ec308 (SHV-5) [8] = assay: Potentiation of tigemonam, strain ec308; format: cell-based; details: minimum BLI concentration inhibiting growth with 4 μg/mL tigemonam

CTX-M-14, sequence (Q9L5C7 entry or part of it): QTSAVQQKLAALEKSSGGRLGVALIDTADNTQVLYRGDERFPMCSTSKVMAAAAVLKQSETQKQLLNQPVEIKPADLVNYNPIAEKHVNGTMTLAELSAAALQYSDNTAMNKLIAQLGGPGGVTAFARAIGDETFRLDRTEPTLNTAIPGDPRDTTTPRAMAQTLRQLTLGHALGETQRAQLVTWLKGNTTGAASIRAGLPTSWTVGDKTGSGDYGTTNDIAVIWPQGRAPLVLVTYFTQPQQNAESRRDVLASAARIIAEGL
SHV-12, sequence (P0AD64 22-286 L31Q/G234S/E235K): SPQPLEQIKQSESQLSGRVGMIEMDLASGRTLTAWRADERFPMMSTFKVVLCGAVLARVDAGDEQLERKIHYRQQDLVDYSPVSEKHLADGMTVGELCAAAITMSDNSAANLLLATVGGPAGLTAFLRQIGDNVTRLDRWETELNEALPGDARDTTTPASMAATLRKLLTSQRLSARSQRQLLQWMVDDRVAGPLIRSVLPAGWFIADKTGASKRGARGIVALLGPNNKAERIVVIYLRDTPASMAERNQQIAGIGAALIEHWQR
CMY-2, sequence (Q48434 21-381, species assumed): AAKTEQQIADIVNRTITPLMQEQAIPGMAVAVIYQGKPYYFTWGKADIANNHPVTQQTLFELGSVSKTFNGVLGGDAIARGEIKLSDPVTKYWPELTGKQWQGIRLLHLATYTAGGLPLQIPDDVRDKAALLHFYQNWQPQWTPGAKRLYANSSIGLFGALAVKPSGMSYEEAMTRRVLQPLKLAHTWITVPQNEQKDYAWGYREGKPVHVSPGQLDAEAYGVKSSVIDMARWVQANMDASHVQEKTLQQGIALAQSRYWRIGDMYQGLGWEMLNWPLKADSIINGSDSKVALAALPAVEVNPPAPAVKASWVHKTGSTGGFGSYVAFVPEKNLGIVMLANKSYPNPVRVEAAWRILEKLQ
P99, sequence (P05364 21-381): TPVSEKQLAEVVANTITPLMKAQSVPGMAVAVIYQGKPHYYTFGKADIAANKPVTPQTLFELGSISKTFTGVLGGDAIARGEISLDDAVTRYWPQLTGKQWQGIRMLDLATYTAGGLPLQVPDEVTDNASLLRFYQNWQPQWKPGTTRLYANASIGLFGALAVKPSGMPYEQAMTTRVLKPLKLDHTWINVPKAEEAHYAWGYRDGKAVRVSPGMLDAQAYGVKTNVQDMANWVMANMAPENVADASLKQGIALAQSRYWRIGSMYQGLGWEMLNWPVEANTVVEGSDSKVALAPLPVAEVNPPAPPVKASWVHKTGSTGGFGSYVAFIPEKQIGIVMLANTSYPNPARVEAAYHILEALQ
OXA-48, sequence (Q6XEC0 23-265 limits assumed): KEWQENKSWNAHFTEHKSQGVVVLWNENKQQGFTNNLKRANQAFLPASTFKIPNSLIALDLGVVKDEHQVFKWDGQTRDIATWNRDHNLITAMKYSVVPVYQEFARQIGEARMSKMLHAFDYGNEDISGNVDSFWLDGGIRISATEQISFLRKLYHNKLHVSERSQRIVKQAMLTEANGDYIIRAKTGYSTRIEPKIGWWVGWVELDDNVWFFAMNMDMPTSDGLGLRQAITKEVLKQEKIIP

NC(=O)C(=O)N[C@H]1Cc2cccc(C(=O)O)c2OB1O [Compound 17, (R)-3-(2-amino-2-oxoacetamido)-2-hydroxy-3,4-dihydro-2H-benzo[e][1,2]oxaborinine-8-carboxylic acid]
AZT MPC4 SHV-5 ec308 (ec308 (SHV-5) [1]): X (X = MIC of less than 1 μg/mL) | PAM1032/KPC-2 Biapenem MPC64 (PAM1032/KPC-2): Z (Z Greater than 40) | AZT MPC4 ECL1002 (ECL1002): Y (Y = MIC of 1 μg/mL to 10 μg/mL) | AZT MPC4 K-2 KP1004 (KP1004 (K-2)): Y (Y = MIC of 1 μg/mL to 10 μg/mL) | Ki (P99): 1 to 10 nM | PAM1154/KPC-2 Biapenem MPC64 (PAM1154/KPC-2): X (key: X = Less than 10; Y = 10 to 40; Z Greater than 40) | AZT MPC4 CTX-M-14 KP1005 (KP1005 (CTX-M-14)): Y (key: X = MIC of less than 1 μg/mL; Y = MIC of 1 μg/mL to 10 μg/mL; Z = MIC of greater than 10 μg/mL) | TIG MPC4 CMY-6 EC1010 (EC1010 (CMY-6) [2]): X (key: X = MIC of less than 1 μg/mL; Y = MIC of 1 μg/mL to 10 μg/mL; Z = MIC of greater than 10 μg/mL) | AZT MPC4 CTX-M-15 KP1009 (KP1009 (CTX-M-15) [3]): Y (key: X = MIC of less than 1 μg/mL; Y = MIC of 1 μg/mL to 10 μg/mL; Z = MIC of greater than 10 μg/mL) | Ki (CTX-M-14): 1 to 10 nM | Ki (SHV-12): 1 to 10 nM | AZT MPC4 TEM-10 ec302 (ec302 (TEM-10) [4]): X (key: X = MIC of less than 1 μg/mL; Y = MIC of 1 μg/mL to 10 μg/mL; Z = MIC of greater than 10 μg/mL) | Ki (CMY-2): 1 to 10 nM | AZT MPC4 CMY-6 EC1010 (EC1010 (CMY-6) [5]): Y (key: X = MIC of less than 1 μg/mL; Y = MIC of 1 μg/mL to 10 μg/mL; Z = MIC of greater than 10 μg/mL) | TIG MPC4 TEM-10 ec302 (ec302 (TEM-10) [6]): X (key: X = MIC of less than 1 μg/mL; Y = MIC of 1 μg/mL to 10 μg/mL; Z = MIC of greater than 10 μg/mL) | TIG MPC4 CTX-M-15 KP1009 (KP1009 (CTX-M-15) [7]): Y (Y = MIC of 1 μg/mL to 10 μg/mL) | Ki (OXA-48): 1 to 10 nM | TIG MPC4 SHV-5 ec308 (ec308 (SHV-5) [8]): Y (Y = MIC of 1 μg/mL to 10 μg/mL)
